Earlier results as cited in patent US20220257490A1, “METHOD FOR DYEING KERATINOUS MATERIAL, COMPRISING THE USE OF AN ORGANOSILICON COMPOUND, A COLORED EFFECT PIGMENT AND A FILM-FORMING POLYMER IV” (Henkel AG & Co. KGaA, priority 2019, published 2022).

Conditions: 25° C.

solubility in water (in words) | Compound | solubility in water
 | O=S(=O)([O-])c1ccc(N=Nc2c(O)ccc3ccccc23)cc1.[Na+] [Acid Orange 7, sodium salt of 4-[(2-hydroxy-1-naphthyl)azo]benzene sulphonate] | more than 7 g/L
 | Nc1cc(S(=O)(=O)[O-])cc2cc(S(=O)(=O)[O-])c(N=Nc3ccccc3)c(O)c12.[Na+].[Na+] [Acid Red 33, disodium salt of 5-amino-4-hydroxy-3-(phenylazo)-naphthalene-2,7-disulphonate] | 2500 µg/mL
 | O=C([O-])c1c(Cl)c(Cl)c(Cl)c(Cl)c1-c1c2c(Br)cc(=O)c(Br)c-2oc2c(Br)c(O)cc(Br)c12.O=C([O-])c1c(Cl)c(Cl)c(Cl)c(Cl)c1-c1c2c(Br)cc(=O)c(Br)c-2oc2c(Br)c(O)cc(Br)c12.[Na+].[Na+] [Acid Red 92, disodium salt of 3,4,5,6-tetrachloro-2-(1,4,5,8-tetrabromo-6-hydroxy-3-oxoxanthen-9-yl)benzoic acid] | greater than 10 g/L
highly soluble in water | O=C([O-])C1=NN(c2ccc(S(=O)(=O)[O-])cc2)C(=O)C1N=Nc1ccc(S(=O)(=O)[O-])cc1.[Na+].[Na+].[Na+] (stereo not shown) [Acid Yellow 23, trisodium salt of 4,5-dihydro-5-oxo-1-(4-sulfophenyl)-4-((4-sulfophenyl)azo)-1H-pyrazole-3-carboxylic acid] | 
